Assays:
PDK1/PDHK1 = biological target: T1, PDK1/PDHK1 (Homo sapiens, UniProt Q15118); experiment: Kinase panel screening 1 μM; format: biochemical; details: read-out: enzymatic inhibition PDK1/PDHK1
T1 construct: purchased Reaction Biology Corp. (Kinase HotSpot)

SYK = biological target: T2, SYK (Homo sapiens, UniProt P43405); experiment: Kinase panel screening 1 μM; format: biochemical; details: read-out: enzymatic inhibition SYK
T2 construct: purchased Reaction Biology Corp. (Kinase HotSpot)

c-MET = biological target: T3, c-MET (Homo sapiens, UniProt P08581); experiment: Kinase panel screening 1 μM; format: biochemical; details: read-out: enzymatic inhibition c-MET
T3 construct: purchased Reaction Biology Corp. (Kinase HotSpot)

Aurora A = biological target: T4, Aurora A (Homo sapiens, UniProt O14965); experiment: Kinase panel screening 1 μM; format: biochemical; details: read-out: enzymatic inhibition Aurora A
T4 construct: purchased Reaction Biology Corp. (Kinase HotSpot)

PLK1 = biological target: T5, PLK1 (Homo sapiens, UniProt P53350); experiment: Kinase panel screening 1 μM; format: biochemical; details: read-out: enzymatic inhibition PLK1
T5 construct: purchased Reaction Biology Corp. (Kinase HotSpot)

JNK2 = biological target: T6, JNK2 (Homo sapiens, UniProt P45984); experiment: Kinase HotSpot assay, JNK2; format: biochemical
T6 construct: purchased Reaction Biology Corp

JNK1 = biological target: T7, JNK1 (Homo sapiens, UniProt P45983); experiment: Kinase HotSpot assay, JNK1; format: biochemical
T7 construct: purchased Reaction Biology Corp

EGFR = biological target: T8, EGFR (Homo sapiens, UniProt P00533); experiment: Kinase panel screening 1 μM; format: biochemical; details: read-out: enzymatic inhibition EGFR
T8 construct: purchased Reaction Biology Corp. (Kinase HotSpot)

ALK = biological target: T9, ALK (Homo sapiens, UniProt Q9UM73); experiment: Kinase panel screening 1 μM; format: biochemical; details: read-out: enzymatic inhibition ALK
T9 construct: purchased Reaction Biology Corp. (Kinase HotSpot)

JAK3 = biological target: T10, JAK3 (Homo sapiens, UniProt P52333); experiment: Kinase panel screening 1 μM; format: biochemical; details: read-out: enzymatic inhibition JAK3
T10 construct: purchased Reaction Biology Corp. (Kinase HotSpot)

AXL (R499C) = biological target: T11, AXL (R499C) (Homo sapiens, UniProt P30530, R499C); experiment: Kinase panel screening 1 μM; format: biochemical; details: read-out: enzymatic inhibition AXL (R499C)
T11 construct: purchased Reaction Biology Corp. (Kinase HotSpot)

ABL1 = biological target: T12, ABL1 (Homo sapiens, UniProt P00519); experiment: Kinase panel screening 1 μM; format: biochemical; details: read-out: enzymatic inhibition ABL1
T12 construct: purchased Reaction Biology Corp. (Kinase HotSpot)

MEK1 = biological target: T13, MEK1 (Homo sapiens, UniProt Q02750); experiment: Kinase panel screening 1 μM; format: biochemical; details: read-out: enzymatic inhibition MEK1
T13 construct: purchased Reaction Biology Corp. (Kinase HotSpot)

GSK3β = biological target: T14, GSK3β (Homo sapiens, UniProt P49841); experiment: Kinase HotSpot assay, GSK3β; format: biochemical
T14 construct: purchased Reaction Biology Corp

RON/MST1R = biological target: T15, RON/MST1R (Homo sapiens, UniProt Q04912); experiment: Kinase panel screening 1 μM; format: biochemical; details: read-out: enzymatic inhibition RON/MST1R
T15 construct: purchased Reaction Biology Corp. (Kinase HotSpot)

ERK1 = biological target: T16, ERK1 (Homo sapiens, UniProt P27361); experiment: Kinase panel screening 1 μM; format: biochemical; details: read-out: enzymatic inhibition ERK1
T16 construct: purchased Reaction Biology Corp. (Kinase HotSpot)

[1] = system: primary rat cortical neuron; experiment: Cell viability (MTT) from Aβ-induced neurotoxicity; format: cell-based; details: for Neuroprotection: Aβ-induced primary rat cortical neuronal death
Excerpt: To establish whether the derived selective JNK3 inhibitor actually has the ability to protect neurons from amyloid β-induced neuronal cell death, which is known as the pathogenesis of Alzheimer’s disease, we performed cytotoxicity experiments using Aβ 42, which is known as the most toxic fragment of the amyloid protein. The amyloid-β is known to mainly cause apoptosis during cell death, so it was confirmed whether the derived selective JNK3 inhibitors affect the activation (cleavage) of caspase-3, which are apoptosis-related signaling substances. […] This means that selective JNK3 inhibitors can inhibit apoptosis signaling by amyloid-β in neurons, thereby inhibiting apoptosis. Additionally, we confirmed that JNK activation was induced by amyloid-β in neurons, and the derived selective JNK3 inhibitors could inhibit JNK activation induced by amyloid-β. […] Then, the experiments for JNK3 inhibitors’ effect on the viability of neurons were conducted for five 6-dihydroxy benzimidazoles (35a-35e) by comparing it with previously published resveratrol as a positive control. On the 5th day of rat primary cortical neuron differentiation, each compound was pre-treated for 90 min and then treated with 10 μM Aβ 42 (HIFP-treated) for 24 or 48 h, and cell viability was measured by MTT assay.
In initial experiments, rat hippocampal cells grown in serum-free neurobasal media containing B27 supplements at day 6 were treated with different concentrations of Aβ1–42 or Aβ1–40 for 24 h and then the cell viability was measured by colorimetric MTT assay. Aggregated Aβ1–42 and Aβ1–40 caused up to 40–60% cell death at concentrations ranging from […]. […] Resveratrol was active against various amyloid-related peptides including Aβ1–42, the most neurotoxic amyloid derivative present in the AD brain. […] Primary Rat Cortex Neurons, Sprague Dawley (Gibco, A36512, Fisher Scientific, Göteborg, Sweden), were cultured in Neurobasal™ Plus culture medium (Gibco, A3582901 Fisher Scientific, Göteborg, Sweden), supplemented with B-27™ Supplement (Gibco, A3582801 Fisher Scientific, Göteborg, Sweden) and 0.5 mM GlutaMAX™ Supplement (Gibco, 35050061 Fisher Scientific, Göteborg, Sweden) at 37 °C in a humidified 5% CO2 atmosphere. We plated –2 × 10^5 live cells per well in a poly-D-lysine/laminin coated 24-well plate. For neural differentiation, half of the medium was replaced with fresh complete medium every third day. On day 6, we removed half the volume of media from the culture plate, added an equal amount of complete culture media containing test compounds or vehicle to each well, and incubated them for 90 min at 37 °C and 5% CO2. Immediately prior to use, amyloid β-Protein (1–42) (HFIP-treated) (Bachem, 4090148.0100) was dissolved in 1% NH4OH, further diluted with culture medium, and added into the plates to a final concentration of 10 μM. Cells were incubated for 24 h with vehicle control or test compounds in the presence or absence of Aβ42. Cell viability was measured using the MTT [3-(4, 5-dimethylthiazol-2-yl)-2,5-diphenyltetrazolium bromide] assay. MTT solution was added into each well at a final concentration of 0.5 mg/mL, and cells were incubated at 37 °C for 4 h. The absorbance was detected at 540 nm (reference 650 nm) with a microplate reader. All results were normalized to OD values measured from the vehicle control (DMSO). […]
Primary Rat Cortex Neurons, Sprague Dawley (Gibco, A36512) were cultured in Neurobasal™ Plus culture medium (Gibco, A3582901), supplemented with B-27™ Supplement (Gibco, A3582801) and 0.5mM GlutaMAX™ Supplement (Gibco, 35050061) at 37 °C in a humidified 5% CO2 atmosphere. Plate ~2 × 10^5 live cells per well in a poly-D-lysine/laminin coated 24-well plate. For neural differentiation, half of the medium was replaced with fresh complete medium every third day. On day 6, remove half the volume of media from the culture plate and add an equal amount of complete culture media […]

T14 sequence (P49841 whole entry): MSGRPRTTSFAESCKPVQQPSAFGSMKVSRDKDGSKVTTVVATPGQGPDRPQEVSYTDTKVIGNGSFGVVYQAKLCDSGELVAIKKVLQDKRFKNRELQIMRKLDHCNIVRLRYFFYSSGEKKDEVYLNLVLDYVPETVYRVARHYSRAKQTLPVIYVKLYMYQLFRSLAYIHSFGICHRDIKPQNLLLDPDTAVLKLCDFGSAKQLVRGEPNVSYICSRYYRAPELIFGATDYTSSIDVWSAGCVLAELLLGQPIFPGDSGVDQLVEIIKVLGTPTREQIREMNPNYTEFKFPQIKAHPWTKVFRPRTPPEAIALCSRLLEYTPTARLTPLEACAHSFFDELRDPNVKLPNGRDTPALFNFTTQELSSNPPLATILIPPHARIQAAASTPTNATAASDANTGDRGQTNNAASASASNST
T7 sequence (P45983 whole entry): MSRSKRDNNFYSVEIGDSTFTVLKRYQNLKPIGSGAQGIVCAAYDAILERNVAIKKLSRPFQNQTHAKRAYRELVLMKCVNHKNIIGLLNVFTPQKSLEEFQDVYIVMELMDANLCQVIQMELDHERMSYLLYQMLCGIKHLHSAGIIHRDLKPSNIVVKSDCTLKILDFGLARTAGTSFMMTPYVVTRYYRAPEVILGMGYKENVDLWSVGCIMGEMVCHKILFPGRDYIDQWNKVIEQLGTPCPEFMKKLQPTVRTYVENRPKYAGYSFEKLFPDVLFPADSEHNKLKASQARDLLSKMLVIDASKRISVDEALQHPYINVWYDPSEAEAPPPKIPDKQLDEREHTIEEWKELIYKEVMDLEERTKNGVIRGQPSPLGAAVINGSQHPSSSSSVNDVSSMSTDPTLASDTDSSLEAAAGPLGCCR
T6 sequence (P45984 whole entry): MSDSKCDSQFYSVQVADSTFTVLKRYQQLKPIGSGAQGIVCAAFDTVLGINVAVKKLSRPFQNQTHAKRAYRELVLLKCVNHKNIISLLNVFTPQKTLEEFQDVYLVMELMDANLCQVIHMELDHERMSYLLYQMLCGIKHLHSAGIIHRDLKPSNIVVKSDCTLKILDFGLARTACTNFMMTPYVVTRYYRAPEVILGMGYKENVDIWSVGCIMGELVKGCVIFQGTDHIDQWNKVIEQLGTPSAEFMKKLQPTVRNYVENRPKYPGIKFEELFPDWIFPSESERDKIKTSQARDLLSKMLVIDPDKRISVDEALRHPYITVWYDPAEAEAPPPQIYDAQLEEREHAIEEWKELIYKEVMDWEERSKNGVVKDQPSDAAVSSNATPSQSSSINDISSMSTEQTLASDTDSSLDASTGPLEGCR
T5 sequence (P53350 whole entry): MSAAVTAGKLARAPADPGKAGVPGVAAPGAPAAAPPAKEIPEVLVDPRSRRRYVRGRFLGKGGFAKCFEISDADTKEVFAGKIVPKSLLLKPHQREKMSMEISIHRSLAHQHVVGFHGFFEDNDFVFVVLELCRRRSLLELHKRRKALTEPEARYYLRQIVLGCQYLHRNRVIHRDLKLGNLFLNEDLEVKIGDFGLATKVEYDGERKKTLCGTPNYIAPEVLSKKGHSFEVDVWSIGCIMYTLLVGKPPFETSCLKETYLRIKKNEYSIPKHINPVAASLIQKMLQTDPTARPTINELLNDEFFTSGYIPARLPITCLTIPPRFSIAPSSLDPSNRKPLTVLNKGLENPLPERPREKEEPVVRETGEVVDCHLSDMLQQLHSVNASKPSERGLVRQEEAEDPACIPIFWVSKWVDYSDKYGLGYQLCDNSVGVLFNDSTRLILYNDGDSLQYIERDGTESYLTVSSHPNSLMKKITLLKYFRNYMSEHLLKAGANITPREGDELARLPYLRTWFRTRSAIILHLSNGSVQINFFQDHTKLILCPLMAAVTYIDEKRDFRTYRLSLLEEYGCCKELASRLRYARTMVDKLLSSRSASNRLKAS
T12 sequence (P00519 whole entry): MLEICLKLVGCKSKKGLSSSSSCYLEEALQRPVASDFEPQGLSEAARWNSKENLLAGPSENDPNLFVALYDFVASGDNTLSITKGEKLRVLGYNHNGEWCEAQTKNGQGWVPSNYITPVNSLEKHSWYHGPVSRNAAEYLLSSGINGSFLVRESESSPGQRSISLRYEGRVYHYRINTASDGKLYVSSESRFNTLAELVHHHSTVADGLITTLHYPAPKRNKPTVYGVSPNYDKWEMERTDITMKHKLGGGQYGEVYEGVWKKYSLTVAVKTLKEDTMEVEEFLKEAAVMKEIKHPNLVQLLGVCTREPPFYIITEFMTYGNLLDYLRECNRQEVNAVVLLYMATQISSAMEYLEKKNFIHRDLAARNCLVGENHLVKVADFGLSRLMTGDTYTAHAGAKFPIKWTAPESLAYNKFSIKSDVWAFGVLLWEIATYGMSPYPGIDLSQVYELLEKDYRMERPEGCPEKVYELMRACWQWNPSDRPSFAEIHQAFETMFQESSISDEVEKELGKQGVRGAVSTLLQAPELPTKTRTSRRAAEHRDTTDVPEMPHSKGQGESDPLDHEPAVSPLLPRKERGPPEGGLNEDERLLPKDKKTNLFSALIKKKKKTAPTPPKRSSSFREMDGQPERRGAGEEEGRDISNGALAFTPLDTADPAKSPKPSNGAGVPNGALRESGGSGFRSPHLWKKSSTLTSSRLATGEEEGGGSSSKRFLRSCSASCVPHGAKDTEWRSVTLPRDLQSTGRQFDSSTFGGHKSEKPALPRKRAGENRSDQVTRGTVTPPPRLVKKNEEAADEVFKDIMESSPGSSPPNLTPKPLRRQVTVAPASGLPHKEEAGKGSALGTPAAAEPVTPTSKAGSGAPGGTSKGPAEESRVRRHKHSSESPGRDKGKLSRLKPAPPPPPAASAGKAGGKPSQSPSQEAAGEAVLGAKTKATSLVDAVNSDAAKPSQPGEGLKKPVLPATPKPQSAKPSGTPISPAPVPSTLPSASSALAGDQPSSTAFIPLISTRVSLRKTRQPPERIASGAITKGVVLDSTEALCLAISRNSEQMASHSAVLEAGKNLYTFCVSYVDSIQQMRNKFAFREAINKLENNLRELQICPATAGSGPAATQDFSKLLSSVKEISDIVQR
T1 sequence (Q15118 29-436): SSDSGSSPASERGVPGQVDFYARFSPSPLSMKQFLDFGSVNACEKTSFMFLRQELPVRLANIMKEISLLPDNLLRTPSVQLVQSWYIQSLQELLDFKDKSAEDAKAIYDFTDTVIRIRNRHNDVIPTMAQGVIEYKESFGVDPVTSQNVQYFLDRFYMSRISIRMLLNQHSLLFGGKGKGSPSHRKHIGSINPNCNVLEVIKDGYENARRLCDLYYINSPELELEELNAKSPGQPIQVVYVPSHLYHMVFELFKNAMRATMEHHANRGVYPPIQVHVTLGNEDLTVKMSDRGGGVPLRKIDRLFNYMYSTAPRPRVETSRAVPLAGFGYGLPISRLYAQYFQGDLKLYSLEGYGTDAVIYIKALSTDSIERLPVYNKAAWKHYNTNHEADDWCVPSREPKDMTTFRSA
T4 sequence (O14965 whole entry): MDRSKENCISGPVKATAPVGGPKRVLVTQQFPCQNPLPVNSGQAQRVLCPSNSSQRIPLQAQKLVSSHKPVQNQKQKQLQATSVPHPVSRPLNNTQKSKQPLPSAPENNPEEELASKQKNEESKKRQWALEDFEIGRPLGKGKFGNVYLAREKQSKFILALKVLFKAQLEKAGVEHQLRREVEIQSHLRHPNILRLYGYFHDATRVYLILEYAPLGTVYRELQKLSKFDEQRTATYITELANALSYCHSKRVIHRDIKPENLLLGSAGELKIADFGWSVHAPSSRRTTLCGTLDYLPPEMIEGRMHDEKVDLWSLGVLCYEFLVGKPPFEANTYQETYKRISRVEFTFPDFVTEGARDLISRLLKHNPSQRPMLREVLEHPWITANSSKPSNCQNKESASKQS
T13 sequence (Q02750 whole entry): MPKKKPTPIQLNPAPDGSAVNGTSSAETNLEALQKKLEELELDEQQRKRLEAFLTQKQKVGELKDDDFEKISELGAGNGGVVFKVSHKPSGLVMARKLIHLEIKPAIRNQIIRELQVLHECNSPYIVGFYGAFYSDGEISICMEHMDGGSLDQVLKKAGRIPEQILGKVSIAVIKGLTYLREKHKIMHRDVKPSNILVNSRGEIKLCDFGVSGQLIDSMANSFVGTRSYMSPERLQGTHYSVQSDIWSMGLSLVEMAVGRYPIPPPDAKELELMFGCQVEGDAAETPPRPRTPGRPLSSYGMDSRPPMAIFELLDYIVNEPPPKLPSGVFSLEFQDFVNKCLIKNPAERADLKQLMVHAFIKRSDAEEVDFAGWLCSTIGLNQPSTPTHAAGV
T16 sequence (P27361 whole entry): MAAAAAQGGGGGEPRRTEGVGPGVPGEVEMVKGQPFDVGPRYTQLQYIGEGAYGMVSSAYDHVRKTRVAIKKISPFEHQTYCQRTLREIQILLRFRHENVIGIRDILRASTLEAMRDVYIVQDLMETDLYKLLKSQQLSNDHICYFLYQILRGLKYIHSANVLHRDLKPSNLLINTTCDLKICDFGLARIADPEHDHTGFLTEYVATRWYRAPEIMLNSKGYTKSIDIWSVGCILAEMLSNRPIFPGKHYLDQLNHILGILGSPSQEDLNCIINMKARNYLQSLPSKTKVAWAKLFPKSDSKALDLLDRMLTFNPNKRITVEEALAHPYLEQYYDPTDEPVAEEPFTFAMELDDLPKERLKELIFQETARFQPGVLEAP

inhibition at 1 µM (PDK1/PDHK1): 0%
inhibition at 1 µM (SYK): 1.73%
inhibition at 1 µM (c-MET): 0%
inhibition at 1 µM (Aurora A): 25.6%
inhibition at 1 µM (PLK1): 0%
IC50 (JNK2): 898 nM
inhibition at 1 µM (JNK2; 1 μM, read-out: enzymatic inhibition JNK2): 38%
IC50 (JNK1): > 10 µM
inhibition at 1 µM (JNK1; 1 μM, read-out: enzymatic inhibition JNK1): 9%
selectivity over JNK1 (JNK1; JNK3 versus JNK1): > 1000 fold
inhibition at 1 µM (EGFR): 0%
inhibition at 1 µM (ALK): 12.5%
inhibition at 1 µM (JAK3): 10.7%
inhibition at 1 µM (AXL (R499C)): 0.64%
inhibition at 1 µM (ABL1): 20.5%
inhibition at 1 µM (MEK1): 0%
IC50 (GSK3β): 5.85 µM
inhibition at 1 µM (GSK3β; 1 μM, read-out: enzymatic inhibition GSK3b): 85.5%
Selectivity/JNK3 (GSK3β; GSK3β IC50 in comparison with JNK3): >600 fold
inhibition at 1 µM (RON/MST1R): 0%
inhibition at 1 µM (ERK1): 0%
Structure (SMILES): O=C(C1CC1)N1CCC[C@H](Nc2nccc(-n3c(-c4ccc5c(c4)OCCO5)nc4cc(O)c(O)cc43)n2)C1 [35b, (S)-Cyclopropyl(3-((4-(2-(2,3-dihydrobenzo[b][1,4]dioxin-6-yl)-5,6-dihydroxy-1H-benzo[d]imidazol-1-yl)pyrimidin-2-yl)amino)piperidin-1-yl)methanone]
Neuroprotection [1]: 95.7%
Neuroprotection ([1]; listed as Present report): > 95.7 ± 2.9%
Cell viability, Mean ([1]; pre-treated 90 min, then 10 μM Aβ42, MTT, normalized to vehicle control (DMSO), compound concentration not given): 95.7 ± 2.9%

Source: paper PMC8539420, “Discovery of a Potent and Selective JNK3 Inhibitor with Neuroprotective Effect Against Amyloid β-Induced Neurotoxicity in Primary Rat Neurons” (International Journal of Molecular Sciences, 2021)
